From patent US9296741B2, “Bromodomain inhibitors” (priority 2012, dated 2016)
Marks after values point to notes of the source that are not given here.

Assays:
[1] = test system: FaDu; experiment: Proliferation panel assay, Head & Neck FaDu; assay type: cell-based; conditions: Homo sapiens, read-out: Cellular Proliferation EC50
[2] = test system: EJ-1; experiment: Proliferation panel assay, Bladder EJ-1; assay type: cell-based; conditions: EJ1, read-out: Cellular Proliferation EC50
[3] = test system: NCI-H929; experiment: Proliferation panel assay, Multiple Myeloma NCI-H929; assay type: cell-based; conditions: Homo sapiens, read-out: Cellular Proliferation EC50
[4] = test system: H460; experiment: Proliferation panel assay, NSCLC H460; assay type: cell-based; conditions: Homo sapiens, NCI-H460, read-out: Cellular Proliferation EC50
[5] = test system: MDAMB231; experiment: Proliferation panel assay, Breast MDAMB231; assay type: cell-based; conditions: Homo sapiens, MDA-MB-231, read-out: Cellular Proliferation EC50
[6] = test system: PC3M; experiment: Proliferation panel assay, Prostate PC3M; assay type: cell-based; conditions: Homo sapiens, PC-3M, read-out: Cellular Proliferation EC50
[7] = test system: SK-LMS-1; experiment: Proliferation panel assay, Sarcoma SK-LMS-1; assay type: cell-based; conditions: Homo sapiens, read-out: Cellular Proliferation EC50
[8] = test system: H1299; experiment: Proliferation panel assay, NSCLC H1299; assay type: cell-based; conditions: Homo sapiens, NCI-H1299, read-out: Cellular Proliferation EC50
[9] = test system: MDAMB453; experiment: Proliferation panel assay, Breast MDAMB453; assay type: cell-based; conditions: Homo sapiens, MDA-MB-453, read-out: Cellular Proliferation EC50
[10] = test system: A-375; experiment: Proliferation panel assay, Melanoma A-375; assay type: cell-based; conditions: Homo sapiens, read-out: Cellular Proliferation EC50
[11] = test system: 786-0; experiment: Proliferation panel assay, RCC 786-0; assay type: cell-based; conditions: Homo sapiens, read-out: Cellular Proliferation EC50
[12] = test system: GEO; experiment: Proliferation panel assay, Colon GEO; assay type: cell-based; conditions: read-out: Cellular Proliferation EC50
[13] = test system: Ramos; experiment: Proliferation panel assay, NHL Ramos; assay type: cell-based; conditions: Homo sapiens, read-out: Cellular Proliferation EC50
[14] = test system: HPAC; experiment: Proliferation panel assay, Pancreas HPAC; assay type: cell-based; conditions: Homo sapiens, read-out: Cellular Proliferation EC50
[15] = target: human BRD4 first bromodomain (BDI_K57-E168) (Homo sapiens (Human), UniProt O60885); experiment: TR-FRET bromodomain binding assay, BRD4 first bromodomain
[16] = test system: Ly18; experiment: Proliferation panel assay, NHL Ly18; assay type: cell-based; conditions: read-out: Cellular Proliferation EC50
[17] = test system: OPM2; experiment: Proliferation panel assay, Multiple Myeloma OPM2; assay type: cell-based; conditions: Homo sapiens, OPM-2, read-out: Cellular Proliferation EC50
[18] = test system: Raji; experiment: Proliferation panel assay, AML Raji; assay type: cell-based; conditions: Homo sapiens, Burkitt lymphoma, read-out: Cellular Proliferation EC50
[19] = test system: SKM1; experiment: Proliferation panel assay, AML SKM1; assay type: cell-based; conditions: Homo sapiens, SKM-1, read-out: Cellular Proliferation EC50
[20] = test system: D54MG; experiment: Proliferation panel assay, Glioblastoma D54MG; assay type: cell-based; conditions: read-out: Cellular Proliferation EC50
[21] = test system: HepG2; experiment: Proliferation panel assay, Hepatocellular HepG2; assay type: cell-based; conditions: Homo sapiens, read-out: Cellular Proliferation EC50
[22] = test system: DLD-1; experiment: Proliferation panel assay, Colon DLD-1; assay type: cell-based; conditions: Homo sapiens, read-out: Cellular Proliferation EC50
[23] = test system: RPMI-8226; experiment: Proliferation panel assay, Multiple Myeloma RPMI-8226; assay type: cell-based; conditions: Homo sapiens, read-out: Cellular Proliferation EC50
[24] = test system: breast cancer cell line MX-1; experiment: MX-1 cell line proliferation assay; assay type: cell-based, human; conditions: Homo sapiens, MX1, 72 h; MX-1 cells, 3-day proliferation, Cell Titer Glo; read-out: Cellular proliferation: EC50
[25] = test system: BxPC3FP5; experiment: Proliferation panel assay, Pancreas BxPC3FP5; assay type: cell-based; conditions: read-out: Cellular Proliferation EC50
[26] = target: human BRD4 second bromodomain (BDII_E352-M457) (Homo sapiens (Human), UniProt O60885); experiment: TR-FRET bromodomain binding assay, BRD4 second bromodomain
[27] = test system: H1975; experiment: Proliferation panel assay, NSCLC H1975; assay type: cell-based; conditions: Homo sapiens, NCI-H1975, read-out: Cellular Proliferation EC50
[28] = Mouse liver microsome stability assay; assay type: in vitro ADME; conditions: male, CD1, mouse, microsomes, pH 7.4
[29] = Human liver microsome stability assay; assay type: in vitro ADME; conditions: both sexes, human, microsomes, pH 7.4
[30] = Rat liver microsome stability assay; assay type: in vitro ADME; conditions: rat liver microsomes (male Sprague-Dawley), 0.5 μM test compound, 0.25 mg/mL microsomal protein, pH 7.4, 37° C.; read-out: Stability in rat liver microsomes (t1/2 in minutes)
[31] = test system: Ramos human cancer cell xenograft; experiment: Xenograft efficacy study, Ramos; assay type: in vivo, mouse; conditions: 3.125 mg/kg/day, PO, BID (5 d on, 3 d off)x2, vehicle F
[32] = test system: MX-1 human breast cancer xenograft tumors; experiment: Xenograft tumor growth inhibition assay, MX-1; assay type: in vivo, mouse; conditions: MX-1, PO, BID (5 on, 3 off)x2, vehicle F
[33] = test system: LPS induced IL-6 production; experiment: LPS (lipopolysaccharide) induced IL-6 production mouse assay; assay type: in vivo; conditions: Mus musculus, read-out: Inhibition of LPS induced IL-6 production in Mice, % inhibition at 3 mg/kg; 3 mg/kg oral, 1 h before LPS; serum IL-6 2 h after LPS

Row | EC50 [3] [nM] | EC50 [4] [nM] | EC50 [5] [nM] | EC50 [6] [nM] | EC50 [7] [nM] | EC50 [8] [nM] | EC50 [9] [nM] | EC50 [10] [nM] | EC50 [11] [nM] | EC50 [13] [nM] | Ki [15] [nM] | EC50 [17] [nM] | EC50 [18] [nM] | EC50 [19] [nM] | EC50 [20] [nM] | Compound | EC50 [1] [nM] | EC50 [2] [nM] | EC50 [12] [nM] | EC50 [14] [nM] | EC50 [16] [nM] | also measured
1 | 154 | > 10000 | 1220 | 8110 | 934 | 2570 | 240 | 3610 | 884 | 320 | 2.5 | 39 | 84 | 58 | 2300 | Cn1nc(-c2cc(NS(C)(=O)=O)ccc2Oc2ccccc2)c2cc(C(N)=O)[nH]c2c1=O [Example 78, 6-methyl-4-{5-[(methylsulfonyl)amino]-2-phenoxyphenyl}-7-oxo-6,7-dihydro-1H-pyrrolo[2,3-d]pyridazine-2-carboxamide] | 390 | 2090 | 1290 | 1190 | 420 | EC50 [21]: 885 nM; EC50 [22]: 4970 nM; EC50 [23]: 1400 nM; EC50 [24]: 400 nM; EC50 [25]: 740 nM; Ki [26]: 1.8 nM; EC50 [27]: 1370 nM
2 | 3 | 3770 | 220 | 70 | 25 | 60 | 20 | 20 | 11 | 20 | 1.4 | 1 | 6 | 5 | 38 | Cn1cc(-c2cc(NS(C)(=O)=O)ccc2Oc2ccccc2)c2cc[nH]c2c1=O [Example 4, N-[3-(6-methyl-7-oxo-6,7-dihydro-1H-pyrrolo[2,3-c]pyridin-4-yl)-4-phenoxyphenyl]methanesulfonamide] | 20 | 202 | 80 | 50 | 20 | half-life at 0.5 μM [28]: 57 min; half-life at 0.5 μM [29]: 59 min; half-life at 0.5 μM [30]: 4 min; % TGD (tumor growth delay) [31]: 27* %; % TGI (tumor growth inhibition) [31]: 19%; % removed from study [31]: 0%; % TGD (tumor growth delay) ([32]; 12.5 mg/kg/day): 70*** %; % TGI (tumor growth inhibition) ([32]; 12.5 mg/kg/day): 73*** %; % removed from study ([32]; 12.5 mg/kg/day): 10%; % TGD (tumor growth delay) ([32]; 25 mg/kg/day): 81*** %; % TGI (tumor growth inhibition) ([32]; 25 mg/kg/day): 77*** %; % removed from study ([32]; 25 mg/kg/day): 30%; EC50 [21]: 74.6 nM; EC50 [22]: 200 nM; inhibition in vivo at 3 mg/kg [33]: 69%; EC50 [23]: 11 nM; EC50 [24]: 16.4 nM; EC50 [25]: 10 nM; Ki [26]: 2 nM; EC50 [27]: 20 nM
